ChEMBL document CHEMBL1139487, “Discovery of corticotropin releasing factor 2 receptor selective sauvagine analogues for treatment of skeletal muscle atrophy” (J Med Chem, 2005)
Square brackets hold non-standard residues; d marks the D form. Peptide text beside a SMILES is read from it. pGlu = O=C1CC[C@@H](C(=O)O)N1

Tests used:
Mus musculus = organism: Mus musculus; assay: Selectivity ratio of EC50s for mouse corticotropin releasing factor receptors 1 and 2
[1] = target: Corticotropin-releasing factor receptor 2 (Mus musculus) (UniProt Q60748); assay: In vitro agonistic activity against mouse corticotropin releasing factor 2 receptor; assay type: functional
[2] = target: T1, Corticotropin-releasing factor receptor 1 (Mus musculus) (UniProt P35347); assay: In vitro agonistic activity against mouse corticotropin releasing factor 1 receptor; assay type: functional
T1 sequence (whole entry): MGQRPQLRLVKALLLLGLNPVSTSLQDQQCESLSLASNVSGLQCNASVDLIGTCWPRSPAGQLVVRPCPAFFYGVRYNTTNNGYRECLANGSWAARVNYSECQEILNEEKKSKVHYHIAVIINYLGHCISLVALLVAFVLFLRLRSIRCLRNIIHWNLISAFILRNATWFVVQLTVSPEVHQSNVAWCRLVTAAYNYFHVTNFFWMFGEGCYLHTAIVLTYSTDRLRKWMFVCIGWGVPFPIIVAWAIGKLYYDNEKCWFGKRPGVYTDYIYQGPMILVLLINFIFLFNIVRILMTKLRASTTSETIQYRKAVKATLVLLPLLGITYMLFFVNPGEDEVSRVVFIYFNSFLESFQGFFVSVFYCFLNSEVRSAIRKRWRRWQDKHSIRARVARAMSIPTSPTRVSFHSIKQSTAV

[3] = target: Corticotropin-releasing factor receptor 2 (Mus musculus, UniProt Q60748); assay: In vitro effective concentration for mouse corticotropin releasing factor 2 receptor
[4] = target: T2, Corticotropin-releasing factor receptor 1 (Mus musculus, UniProt P35347); assay: In vitro effective concentration for mouse corticotropin releasing factor 1 receptor
T2 sequence (P35347 whole entry): T1 sequence (whole entry)

Chain of Corticotropin-releasing factor receptor 2 (Mus musculus) (Q60748 whole entry): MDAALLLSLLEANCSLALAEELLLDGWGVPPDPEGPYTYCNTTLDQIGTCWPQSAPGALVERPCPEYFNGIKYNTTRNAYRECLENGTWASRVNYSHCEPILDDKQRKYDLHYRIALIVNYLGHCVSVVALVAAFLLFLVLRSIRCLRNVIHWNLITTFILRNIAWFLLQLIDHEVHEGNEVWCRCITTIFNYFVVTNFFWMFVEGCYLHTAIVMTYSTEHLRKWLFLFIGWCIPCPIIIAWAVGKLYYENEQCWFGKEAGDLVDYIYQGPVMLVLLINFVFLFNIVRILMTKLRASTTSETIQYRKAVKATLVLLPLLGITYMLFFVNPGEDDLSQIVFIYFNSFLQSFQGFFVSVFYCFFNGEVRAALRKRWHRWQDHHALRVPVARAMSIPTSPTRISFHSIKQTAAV
Chain of Corticotropin-releasing factor receptor 2 (Q60748 whole entry): as above

Selectivity (Mus musculus) | Emax [1] [%] | Emax [2] [%] | EC50 [3] [nM] | EC50 [4] [nM] | SMILES
16 | 98 | 81 |  |  | CC[C@H](C)[C@H](NC(=O)[C@@H](NC(=O)[C@H](CC(=O)O)NC(=O)[C@H](CC(C)C)NC(=O)[C@H](CC(C)C)NC(=O)[C@H](CC(C)C)NC(=O)[C@H](CCCN=C(N)N)NC(=O)[C@H](CC(N)=O)NC(=O)[C@H](CC(N)=O)NC(=O)[C@H](C)NC(=O)[C@H](C)NC(=O)[C@H](CCC(N)=O)NC(=O)[C@H](CCC(N)=O)NC(=O)[C@H](CCCCN)NC(=O)[C@H](CCC(=O)O)NC(=O)[C@H](CCCCN)NC(=O)[C@H](CCC(=O)O)NC(=O)[C@H](CCC(N)=O)NC(=O)[C@H](CCCCN)NC(=O)[C@H](CCC(=O)O)NC(=O)[C@@H](NC(=O)[C@H](CCC(=O)O)NC(=O)[C@@H](NC(=O)[C@H](CCSC)NC(=O)[C@H](CCCCN)NC(=O)[C@H](CCCN=C(N)N)NC(=O)[C@H](CC(C)C)NC(=O)[C@H](CC(C)C)NC(=O)[C@H](Cc1ccccc1)NC(=O)[C@H](Cc1ccc(O)cc1)NC(=O)[C@@H]1CCCN1C(=O)[C@H](CC(C)C)NC(=O)[C@H](CC(=O)O)NC(=O)[C@@H](NC(=O)[C@H](CO)NC(=O)[C@@H](NC(=O)[C@@H]1CCCN1C(=O)[C@@H]1CCCN1C(=O)CNC(=O)[C@@H]1CCC(=O)N1)[C@@H](C)CC)[C@@H](C)CC)[C@@H](C)CC)[C@@H](C)CC)[C@@H](C)O)C(=O)O
9 | 95 | 99 |  |  | CC[C@H](C)[C@H](NC(=O)[C@@H](NC(=O)[C@H](CC(=O)O)NC(=O)[C@H](CC(C)C)NC(=O)[C@H](CC(C)C)NC(=O)[C@H](CC(C)C)NC(=O)[C@H](CCCN=C(N)N)NC(=O)[C@H](CC(N)=O)NC(=O)[C@H](CC(N)=O)NC(=O)[C@H](C)NC(=O)[C@H](C)NC(=O)[C@H](CCC(N)=O)NC(=O)[C@H](CCC(N)=O)NC(=O)[C@H](CCCCN)NC(=O)[C@H](CCC(=O)O)NC(=O)[C@H](CCCCN)NC(=O)[C@H](CCC(=O)O)NC(=O)[C@H](CCC(N)=O)NC(=O)[C@H](CCCCN)NC(=O)[C@H](CCC(=O)O)NC(=O)[C@@H](NC(=O)[C@H](CCC(=O)O)NC(=O)[C@@H](NC(=O)[C@H](CCSC)NC(=O)[C@H](CCCCN)NC(=O)[C@H](CCCN=C(N)N)NC(=O)[C@H](CC(C)C)NC(=O)[C@H](CC(C)C)NC(=O)[C@H](CCC(=O)O)NC(=O)[C@H](CC(C)C)NC(=O)[C@@H]1CCCN1C(=O)[C@H](CC(C)C)NC(=O)[C@H](CC(=O)O)NC(=O)[C@@H](NC(=O)[C@H](CO)NC(=O)[C@@H](NC(=O)[C@@H]1CCCN1C(=O)[C@@H]1CCCN1C(=O)CNC(=O)[C@@H]1CCC(=O)N1)[C@@H](C)CC)[C@@H](C)CC)[C@@H](C)CC)[C@@H](C)CC)[C@@H](C)O)C(=O)O
16 | 73 | 79 |  |  | CC[C@H](C)[C@H](NC(=O)[C@@H](NC(=O)[C@H](CC(=O)O)NC(=O)[C@H](CC(C)C)NC(=O)[C@H](CC(C)C)NC(=O)[C@H](CC(C)C)NC(=O)[C@H](CCCN=C(N)N)NC(=O)[C@H](CC(N)=O)NC(=O)[C@H](CC(N)=O)NC(=O)[C@H](C)NC(=O)[C@H](C)NC(=O)[C@H](CCC(N)=O)NC(=O)[C@H](CCC(N)=O)NC(=O)[C@H](CCCCN)NC(=O)[C@H](CCC(=O)O)NC(=O)[C@H](CCCCN)NC(=O)[C@H](CCC(=O)O)NC(=O)[C@H](CCC(N)=O)NC(=O)[C@H](CCCCN)NC(=O)[C@H](CCC(=O)O)NC(=O)[C@@H](NC(=O)[C@H](CCC(=O)O)NC(=O)[C@@H](NC(=O)[C@H](CCSC)NC(=O)[C@H](CCCCN)NC(=O)[C@H](CCCN=C(N)N)NC(=O)[C@H](CC(C)C)NC(=O)[C@H](CC(C)C)NC(=O)[C@H](Cc1ccc(O)cc1)NC(=O)[C@H](CC(C)C)NC(=O)[C@@H]1CCCN1C(=O)[C@H](CC(C)C)NC(=O)[C@H](CC(=O)O)NC(=O)[C@@H](NC(=O)[C@H](CO)NC(=O)[C@@H](NC(=O)[C@@H]1CCCN1C(=O)[C@@H]1CCCN1C(=O)CNC(=O)[C@@H]1CCC(=O)N1)[C@@H](C)CC)[C@@H](C)CC)[C@@H](C)CC)[C@@H](C)CC)[C@@H](C)O)C(=O)O ([pGlu]GPPISIDLPLYLLRKMIEIEKQEKEKQQAANNRLLLDTI-OH)
30 | 96 | 100 |  |  | CC[C@H](C)[C@H](NC(=O)[C@@H](NC(=O)[C@H](CC(=O)O)NC(=O)[C@H](CC(C)C)NC(=O)[C@H](CC(C)C)NC(=O)[C@H](CC(C)C)NC(=O)[C@H](CCCN=C(N)N)NC(=O)[C@H](CC(N)=O)NC(=O)[C@H](CC(N)=O)NC(=O)[C@H](C)NC(=O)[C@H](C)NC(=O)[C@H](CCC(N)=O)NC(=O)[C@H](CCC(N)=O)NC(=O)[C@H](CCCCN)NC(=O)[C@H](CCC(=O)O)NC(=O)[C@H](CCCCN)NC(=O)[C@H](CCC(=O)O)NC(=O)[C@H](CCC(N)=O)NC(=O)[C@H](CCCCN)NC(=O)[C@H](CCC(=O)O)NC(=O)[C@@H](NC(=O)[C@H](CCC(=O)O)NC(=O)[C@@H](NC(=O)[C@H](CCSC)NC(=O)[C@H](CCCCN)NC(=O)[C@H](CCCN=C(N)N)NC(=O)[C@H](CC(C)C)NC(=O)[C@H](CC(C)C)NC(=O)[C@H](Cc1ccc(O)cc1)NC(=O)[C@H](CCC(N)=O)NC(=O)[C@@H]1CCCN1C(=O)[C@H](CC(C)C)NC(=O)[C@H](CC(=O)O)NC(=O)[C@@H](NC(=O)[C@H](CO)NC(=O)[C@@H](NC(=O)[C@@H]1CCCN1C(=O)[C@@H]1CCCN1C(=O)CNC(=O)[C@@H]1CCC(=O)N1)[C@@H](C)CC)[C@@H](C)CC)[C@@H](C)CC)[C@@H](C)CC)[C@@H](C)O)C(=O)O
33 | 100 | 50 |  |  | CC[C@H](C)[C@H](NC(=O)[C@@H](NC(=O)[C@H](CC(=O)O)NC(=O)[C@H](CC(C)C)NC(=O)[C@H](CC(C)C)NC(=O)[C@H](CC(C)C)NC(=O)[C@H](CCCN=C(N)N)NC(=O)[C@H](CC(N)=O)NC(=O)[C@H](CC(N)=O)NC(=O)[C@H](C)NC(=O)[C@H](C)NC(=O)[C@H](CCC(N)=O)NC(=O)[C@H](CCC(N)=O)NC(=O)[C@H](CCCCN)NC(=O)[C@H](CCC(=O)O)NC(=O)[C@H](CCCCN)NC(=O)[C@H](CCC(=O)O)NC(=O)[C@H](CCC(N)=O)NC(=O)[C@H](CCCCN)NC(=O)[C@H](CCC(=O)O)NC(=O)[C@@H](NC(=O)[C@H](CCC(=O)O)NC(=O)[C@@H](NC(=O)[C@H](CCSC)NC(=O)[C@H](CCCCN)NC(=O)[C@H](CCCN=C(N)N)NC(=O)[C@H](CC(C)C)NC(=O)[C@H](CC(C)C)NC(=O)[C@H](CCC(N)=O)NC(=O)[C@H](CCC(N)=O)NC(=O)[C@@H]1CCCN1C(=O)[C@H](CC(C)C)NC(=O)[C@H](CC(=O)O)NC(=O)[C@@H](NC(=O)[C@H](CO)NC(=O)[C@@H](NC(=O)[C@@H]1CCCN1C(=O)[C@@H]1CCCN1C(=O)CNC(=O)[C@@H]1CCC(=O)N1)[C@@H](C)CC)[C@@H](C)CC)[C@@H](C)CC)[C@@H](C)CC)[C@@H](C)O)C(=O)O
47 | 99 | 100 |  |  | CC[C@H](C)[C@H](NC(=O)[C@@H](NC(=O)[C@H](CC(=O)O)NC(=O)[C@H](CC(C)C)NC(=O)[C@H](CC(C)C)NC(=O)[C@H](CC(C)C)NC(=O)[C@H](CCCN=C(N)N)NC(=O)[C@H](CC(N)=O)NC(=O)[C@H](CC(N)=O)NC(=O)[C@H](C)NC(=O)[C@H](C)NC(=O)[C@H](CCC(N)=O)NC(=O)[C@H](CCC(N)=O)NC(=O)[C@H](CCCCN)NC(=O)[C@H](CCC(=O)O)NC(=O)[C@H](CCCCN)NC(=O)[C@H](CCC(=O)O)NC(=O)[C@H](CCC(N)=O)NC(=O)[C@H](CCCCN)NC(=O)[C@H](CCC(=O)O)NC(=O)[C@@H](NC(=O)[C@H](CCC(=O)O)NC(=O)[C@@H](NC(=O)[C@H](CCSC)NC(=O)[C@H](CCCCN)NC(=O)[C@H](CCCN=C(N)N)NC(=O)[C@H](CC(C)C)NC(=O)[C@H](CC(C)C)NC(=O)[C@H](CCC(N)=O)NC(=O)[C@H](Cc1ccc(O)cc1)NC(=O)[C@@H]1CCCN1C(=O)[C@H](CC(C)C)NC(=O)[C@H](CC(=O)O)NC(=O)[C@@H](NC(=O)[C@H](CO)NC(=O)[C@@H](NC(=O)[C@@H]1CCCN1C(=O)[C@@H]1CCCN1C(=O)CNC(=O)[C@@H]1CCC(=O)N1)[C@@H](C)CC)[C@@H](C)CC)[C@@H](C)CC)[C@@H](C)CC)[C@@H](C)O)C(=O)O
 |  |  | 8.5 | 707 | CC[C@H](C)[C@H](NC(=O)[C@@H](NC(=O)[C@H](CC(=O)O)NC(=O)[C@H](CC(C)C)NC(=O)[C@H](CC(C)C)NC(=O)[C@H](CC(C)C)NC(=O)[C@H](CCCNC(=N)N)NC(=O)[C@H](CC(N)=O)NC(=O)[C@H](CC(N)=O)NC(=O)[C@H](C)NC(=O)[C@H](C)NC(=O)[C@H](CCC(N)=O)NC(=O)[C@H](CCC(N)=O)NC(=O)[C@H](CCCCN)NC(=O)[C@H](CCC(=O)O)NC(=O)[C@H](CCCCN)NC(=O)[C@H](CCC(=O)O)NC(=O)[C@H](CCC(N)=O)NC(=O)[C@H](CCCCN)NC(=O)[C@H](CCC(=O)O)NC(=O)[C@@H](NC(=O)[C@H](CCC(=O)O)NC(=O)[C@@H](NC(=O)[C@H](CCSC)NC(=O)[C@H](CCCCN)NC(=O)[C@H](CCCNC(=N)N)NC(=O)[C@H](CC(C)C)NC(=O)[C@H](CC(C)C)NC(=O)[C@@H](NC(=O)[C@H](CCC(N)=O)NC(=O)[C@@H]1CCCN1C(=O)[C@H](CC(C)C)NC(=O)[C@H](CC(=O)O)NC(=O)[C@@H](NC(=O)[C@H](CO)NC(=O)[C@@H](NC(=O)[C@@H]1CCCN1C(=O)[C@@H]1CCCN1C(=O)CNC(=O)[C@@H]1CCC(=O)N1)[C@@H](C)CC)[C@@H](C)CC)[C@@H](C)CC)[C@@H](C)CC)[C@@H](C)CC)[C@@H](C)O)C(=O)O
